Data taken from patent US20140045824A1, “METHOD FOR PRODUCING COMPLEX CRYSTAL AND METHOD FOR SCREENING COMPLEX CRYSTAL” (priority 2011, published 2014).

Key:
[1] = Cocrystal screening by slurry method (Comparative Examples 1-1 to 1-6), powder X-ray diffraction; assay type: physicochemical; set-up: key to Cocrystal formation, Comparative Example 1* / Cocrystal formation, Comparative Example 1-1 / Cocrystal formation, Comparative Example 1-2 / Cocrystal formation, Comparative Example 1-3 / Cocrystal formation, Comparative Example 1-4 / Cocrystal formation, Comparative Example 1-5 / Cocrystal formation, Comparative Example 1-6: A cocrystal was completely formed.; B: A mixture of a cocrystal and the host compound or guest compound was formed.; C: A cocrystal was not formed (a mixture of the host compound and the guest compound was formed); details: host theophylline; for Cocrystal formation, Comparative Example 1-6: slurry in acetone; for Cocrystal formation, Comparative Example 1-6 / Cocrystal formation, Comparative Example 1-2 / Cocrystal formation, Comparative Example 1-5 / Cocrystal formation, Comparative Example 1-3 / Cocrystal formation, Comparative Example 1-4 / Cocrystal formation, Comparative Example 1-1: room temperature 7 days; for Cocrystal formation, Comparative Example 1-2: slurry in ethanol; for Cocrystal formation, Comparative Example 1-5: slurry in ethyl acetate; for Cocrystal formation, Comparative Example 1-3: slurry in tetrahydrofuran; for Cocrystal formation, Comparative Example 1-4: slurry in toluene; for Cocrystal formation, Comparative Example 1-1: slurry in water; for Cocrystal formation, Comparative Example 1*: slurry summary: A if a cocrystal was formed in any one of Comparative Examples 1-1 to 1-6
Experimental: (§1) 3 mg (0.0167 mmoles) of theophylline and a guest compound shown in Table 1 in an equimolar amount (0.0167 mmoles) to theophylline were weighed and put into a glass container, to which was then added 60 μL of water. These were shaken at room temperature for 7 days, and the obtained residues were subjected to powder X-ray diffraction measurement. 3 mg (0.0167 mmoles) of theophylline and a guest compound shown in Table I in an equimolar amount (0.0167 mmoles) to theophylline were weighed and put into a glass container, to which was then added 60 μL of ethanol. These were shaken at room temperature for 7 days, and the obtained residues were subjected to powder X-ray diffraction measurement. 3 mg (0.0167 mmoles) of theophylline and a guest compound shown in Table 1 in an equimolar amount (0.0167 mmoles) to theophylline were weighed and put into a glass container, to which was then added 60 μL of tetrahydrofuran. This was shaken at room temperature for 7 days, and the obtained residues were subjected to powder X-ray diffraction measurement. 3 mg (0.0167 mmoles) of theophylline and a guest compound shown in Table 1 in an equimolar amount (0.0167 mmoles) to theophylline were weighed and put into a glass container, to which was then added 60 μL of toluene. These were shaken at room temperature for 7 days, and the obtained residues were subjected to powder X-ray diffraction measurement. 3 mg (0.0167 mmoles) of theophylline and a guest compound shown in Table 1 in an equimolar amount (0.0167 mmoles) to theophylline were weighed and put into a glass container, to which was then added 60 μL of ethyl acetate. These were shaken at room temperature for 7 days, and the obtained residues were subjected to powder X-ray diffraction measurement. 3 mg (0.0167 mmoles) of theophylline and a guest compound shown in Table 1 in an equimolar amount (0.0167 mmoles) to theophylline were weighed and put into a glass container, to which was then added 60 μL of acetone. These were shaken at room temperature for 7 days, and the obtained residues were subjected to powder X-ray diffraction measurement.

[2] = Cocrystal screening by slurry method (Comparative Examples 4-1 to 4-6), powder X-ray diffraction; assay type: physicochemical; set-up: key: A cocrystal was completely formed.; B: A mixture of a cocrystal and the host compound or guest compound was formed.; C: A cocrystal was not formed (a mixture of the host compound and the guest compound was formed).; —: A residue was not obtained; details: host carbamazepine, room temperature 7 days; for Cocrystal formation, Comparative Example 4-3: slurry in tetrahydrofuran
Experimental: as §1, with “(0.0127” for “(0.0167”, “carbamazepine” for “theophylline”, “4” for “1”, “4” for “I”, “These were” for “This was”

Compound: O=C(O)CC(O)(CC(=O)O)C(=O)O [Citric acid]
- Cocrystal formation, Comparative Example 1-6 [1]: C
- Cocrystal formation, Comparative Example 1-2 [1]: C
- Cocrystal formation, Comparative Example 1-5 [1]: A
- Cocrystal formation, Comparative Example 1-3 [1]: C
- Cocrystal formation, Comparative Example 1-4 [1]: C
- Cocrystal formation, Comparative Example 1-1 [1]: C
- Cocrystal formation, Comparative Example 1* [1]: A
- Cocrystal formation, Comparative Example 4-5 ([2]; slurry in ethyl acetate): —
- Cocrystal formation, Comparative Example 4-3 [2]: —

Compound: NC(=O)c1ccccc1 [Benzamide]
- Cocrystal formation, Comparative Example 1-6 [1]: C
- Cocrystal formation, Comparative Example 1-2 [1]: C
- Cocrystal formation, Comparative Example 1-5 [1]: C
- Cocrystal formation, Comparative Example 1-3 [1]: C
- Cocrystal formation, Comparative Example 1-4 [1]: C
- Cocrystal formation, Comparative Example 1-1 [1]: A
- Cocrystal formation, Comparative Example 1* [1]: A

Compound: CC(C)C[C@H](N)C(=O)O [L-Leucine]
- Cocrystal formation, Comparative Example 1-6 [1]: C
- Cocrystal formation, Comparative Example 1-2 [1]: C
- Cocrystal formation, Comparative Example 1-5 [1]: C
- Cocrystal formation, Comparative Example 1-3 [1]: C
- Cocrystal formation, Comparative Example 1-4 [1]: C
- Cocrystal formation, Comparative Example 1-1 [1]: C
- Cocrystal formation, Comparative Example 1* [1]: C
- Cocrystal formation, Comparative Example 4-3 [2]: —

Compound: NC(=O)c1cccnc1 [Nicotinamide]
- Cocrystal formation, Comparative Example 1-6 [1]: A
- Cocrystal formation, Comparative Example 1-2 [1]: B
- Cocrystal formation, Comparative Example 1-5 [1]: A
- Cocrystal formation, Comparative Example 1-3 [1]: B
- Cocrystal formation, Comparative Example 1-4 [1]: A
- Cocrystal formation, Comparative Example 1-1 [1]: C
- Cocrystal formation, Comparative Example 1* [1]: A

Compound: O=C(O)CCCC(=O)O [Glutaric acid]
- Cocrystal formation, Comparative Example 1-6 [1]: C
- Cocrystal formation, Comparative Example 1-2 [1]: C
- Cocrystal formation, Comparative Example 1-5 [1]: C
- Cocrystal formation, Comparative Example 1-3 [1]: C
- Cocrystal formation, Comparative Example 1-4 [1]: C
- Cocrystal formation, Comparative Example 1-1 [1]: C
- Cocrystal formation, Comparative Example 1* [1]: C
- Cocrystal formation, Comparative Example 4-3 [2]: —

Compound: O=C(O)/C=C\C(=O)O [Maleic acid]
- Cocrystal formation, Comparative Example 1-6 [1]: C
- Cocrystal formation, Comparative Example 1-2 [1]: C
- Cocrystal formation, Comparative Example 1-5 [1]: A
- Cocrystal formation, Comparative Example 1-3 [1]: C
- Cocrystal formation, Comparative Example 1-4 [1]: A
- Cocrystal formation, Comparative Example 1-1 [1]: C
- Cocrystal formation, Comparative Example 1* [1]: A

Compound: O=S(=O)(O)CCS(=O)(=O)O [Ethanedisulfonic acid]
- Cocrystal formation, Comparative Example 1-6 [1]: A
- Cocrystal formation, Comparative Example 1-2 [1]: A
- Cocrystal formation, Comparative Example 1-5 [1]: A
- Cocrystal formation, Comparative Example 1-3 [1]: A
- Cocrystal formation, Comparative Example 1-4 [1]: A
- Cocrystal formation, Comparative Example 1-1 [1]: C
- Cocrystal formation, Comparative Example 1* [1]: A

Compound: O=C1NS(=O)(=O)c2ccccc21 [Saccharin]
- Cocrystal formation, Comparative Example 1-6 [1]: C
- Cocrystal formation, Comparative Example 1-2 [1]: A
- Cocrystal formation, Comparative Example 1-5 [1]: A
- Cocrystal formation, Comparative Example 1-3 [1]: C
- Cocrystal formation, Comparative Example 1-4 [1]: C
- Cocrystal formation, Comparative Example 1-1 [1]: C
- Cocrystal formation, Comparative Example 1* [1]: A
- Cocrystal formation, Comparative Example 4-3 [2]: —

Compound: O=C(O)C(=O)O [Oxalic acid]
- Cocrystal formation, Comparative Example 1-6 [1]: A
- Cocrystal formation, Comparative Example 1-2 [1]: C
- Cocrystal formation, Comparative Example 1-5 [1]: A
- Cocrystal formation, Comparative Example 1-3 [1]: A
- Cocrystal formation, Comparative Example 1-4 [1]: C
- Cocrystal formation, Comparative Example 1-1 [1]: C
- Cocrystal formation, Comparative Example 1* [1]: A
- Cocrystal formation, Comparative Example 4-3 [2]: —

Compound: NCC(=O)O [Glycine]
- Cocrystal formation, Comparative Example 1-6 [1]: C
- Cocrystal formation, Comparative Example 1-2 [1]: C
- Cocrystal formation, Comparative Example 1-5 [1]: C
- Cocrystal formation, Comparative Example 1-3 [1]: C
- Cocrystal formation, Comparative Example 1-4 [1]: C
- Cocrystal formation, Comparative Example 1-1 [1]: C
- Cocrystal formation, Comparative Example 1* [1]: C
- Cocrystal formation, Comparative Example 4-3 [2]: —

Compound: C/C=C/C=C/C(=O)O [Sorbic acid]
- Cocrystal formation, Comparative Example 1-6 [1]: C
- Cocrystal formation, Comparative Example 1-2 [1]: C
- Cocrystal formation, Comparative Example 1-5 [1]: A
- Cocrystal formation, Comparative Example 1-3 [1]: C
- Cocrystal formation, Comparative Example 1-4 [1]: A
- Cocrystal formation, Comparative Example 1-1 [1]: C
- Cocrystal formation, Comparative Example 1* [1]: A
- Cocrystal formation, Comparative Example 4-3 [2]: —

Compound: O=C(O)c1ccccc1 [Benzoic acid]
- Cocrystal formation, Comparative Example 1-6 [1]: C
- Cocrystal formation, Comparative Example 1-2 [1]: C
- Cocrystal formation, Comparative Example 1-5 [1]: C
- Cocrystal formation, Comparative Example 1-3 [1]: C
- Cocrystal formation, Comparative Example 1-4 [1]: C
- Cocrystal formation, Comparative Example 1-1 [1]: C
- Cocrystal formation, Comparative Example 1* [1]: C
- Cocrystal formation, Comparative Example 4-3 [2]: —
